Results published in patent US8778973B2, “Alkene oxindole derivatives” (Hoffmann-La Roche Inc., priority 2009, dated 2014).

test system: Recombinant human AMPK proteins (α1β1γ1, α2β1γ1, α1(1-335), α1(1-394) or α2(1-394)); experiment: Scintillation Proximity Assay (SPA) of AMPK activation; assay type: biochemical; settings: activator concentration for 50% of maximal enzyme activity; 50 nM recombinant AMPK, 2 μM ATP, 30° C., 2 hr
Procedure: Recombinant human AMPK α1β1γ1, α2β1γ1 or AMPK α subunit truncations α1(1-335), α1(1-394) and α2(1-394) were constructed, expressed and purified as described previously (Pang, T., Zhang, Z. S., Gu, M., Qiu, B. Y., Yu, L. F., Cao, P. R., Shao, W., Su, M. B., Li, J. Y., Nan, F. J., and Li, J. (2008)). Rat liver AMPK heterotrimer enzyme was obtained from Upstate (Billerica, Mass., U.S.A.).
Scintillation Proximity Assay
Before the Scintillation Proximity Assay (SPA) assay, 200 nM recombinant AMPK proteins (α1β1γ1, α2β1γ1, α1(1-335), α1(1-394) or α2(1-394)) were fully phosphorylated as described previously (Pang et al., 2008). SPA reactions were performed in 96-well plates at a final volume of 501 containing 20 mM Tris-HCl pH 7.5, 5 mM MgCl2, 1 mM DTT, 2 μM biotin-SAMS, 2 μM ATP, 0.2 μCi/well [γ-^33P]ATP, and various amount of activator. Reactions were initiated by the addition of 50 nM recombinant AMPK proteins to the reaction solutions and incubated at 30° C. for 2 hr. After that, reactions were terminated by the addition of 401 stop solution containing 80 μg streptavidin-coated SPA beads per well, 50 mM EDTA, 0.1% Triton X-100 in PBS, pH 7.5 and incubated for 1 hr. Finally, a 160 ul suspension solution containing 2.4 M CsCl, 50 mM EDTA, and 0.1% Triton X-100 in PBS (pH 7.5) was added to the reaction solution to suspend SPA beads completely. SPA signals were determined with a Wallac MicroBeta plate counter (PerkinElmer) 30 min later for calculation of the amount of product formed. The amount of products formed in 2 hr was plotted against activator concentrations to determine the effective concentration of the activator (EC50) required for 50% of maximal enzyme activity.
Compounds as described above have EC50 values between 0.5 uM and 50 uM, preferred compounds have EC50 values between 0.5 uM and 10 uM, particularly preferred compounds have EC50 values between 0.5 uM and 1 uM.

SMILES | EC50 [µM]
COC(=O)c1cccc(CN2C(=O)/C(=C(\c3ccccc3)c3ccccc3S(C)(=O)=O)c3ccccc32)c1 [Example 32, 3-{3-[1-(2-Methanesulfonyl-phenyl)-1-phenyl-meth-(E)-ylidene]-2-oxo-2,3-dihydro-indol-1-ylmethyl}-benzoic acid methyl ester] | 10.5
COC(=O)c1cccc(CN2C(=O)/C(=C(\c3ccccc3)c3ccsc3)c3ccccc32)c1 [Example 33, 3-{2-Oxo-3-[1-phenyl-1-thiophen-3-yl-meth-(E)-ylidene]-2,3-dihydro-indol-1-ylmethyl}-benzoic acid methyl ester] | 5.56
COC(=O)c1cccc(CN2C(=O)/C(=C(\c3ccc(Cl)cc3)c3ccc(C(F)(F)F)cc3)c3ccccc32)c1 [Example 35, 3-{3-[1-(4-Chloro-phenyl)-1-(4-trifluoromethyl-phenyl)-meth-(Z)-ylidene]-2-oxo-2,3-dihydro-indol-1-ylmethyl}-benzoic acid methyl ester] | 2.95
CCOC(=O)COc1ccc(CN2C(=O)/C(=C(\c3ccccc3)c3ccc(Cl)cc3)c3ccccc32)cc1 [Example 36, (4-{3-[1-(4-Chloro-phenyl)-1-phenyl-meth-(E)-ylidene]-2-oxo-2,3-dihydro-indol-1-ylmethyl}-phenoxy)-acetic acid ethyl ester] | 3.69
CC(C)NC(=O)c1cccc(CN2C(=O)/C(=C(\c3ccccc3)c3ccc(Cl)cc3)c3ccccc32)c1 [Example 37, 3-{3-[1-(4-Chloro-phenyl)-1-phenyl-meth-(E)-ylidene]-2-oxo-2,3-dihydro-indol-1-ylmethyl}-N-isopropyl-benzamide] | 4.49
COC(=O)c1ccc(CN2C(=O)/C(=C(\c3ccccc3)c3ccc(Cl)cc3)c3ccccc32)nc1 [Example 38, 6-{3-[1-(4-Chloro-phenyl)-1-phenyl-meth-(E)-ylidene]-2-oxo-2,3-dihydro-indol-1-ylmethyl}-nicotinic acid methyl ester] | 2.91
O=C1/C(=C(\c2ccccc2)c2ccc(Cl)cc2)c2ccccc2N1Cc1cc(O)c(O)c(O)c1 [Example 41, 3-[1-(4-Chloro-phenyl)-1-phenyl-meth-(E)-ylidene]-1-(3,4,5-trihydroxy-benzyl)-1,3-dihydro-indol-2-one] | 4.51
O=C1/C(=C(/c2ccccc2)c2ccc(Cl)cc2)c2ccccc2N1Cc1cc(O)c(O)c(O)c1 [Example 42, 3-[1-(4-Chloro-phenyl)-1-phenyl-meth-(Z)-ylidene]-1-(3,4,5-trihydroxy-benzyl)-1,3-dihydro-indol-2-one] | 4.5
O=C1/C(=C(\c2ccccc2)c2ccc(Cl)cc2)c2ccccc2N1Cc1ccc(O)cc1 [Example 43, 3-[1-(4-Chloro-phenyl)-1-phenyl-meth-(E)-ylidene]-1-(4-hydroxy-benzyl)-1,3-dihydro-indol-2-one] | 3.23
COc1ccc(/C(=C2/C(=O)N(Cc3cccc(C(=O)O)c3)c3ccccc32)c2ccccc2)cc1 [Example 46, 3-{3-[1-(4-Methoxy-phenyl)-1-phenyl-meth-(E)-ylidene]-2-oxo-2,3-dihydro-indol-1-ylmethyl}-benzoic acid] | 4.02
COc1ccccc1/C(=C1\C(=O)N(Cc2cccc(C(=O)O)c2)c2ccccc21)c1ccc(Cl)cc1 [Example 47, 3-{3-[1-(4-Chloro-phenyl)-1-(2-methoxy-phenyl)-meth-(Z)-ylidene]-2-oxo-2,3-dihydro-indol-1-ylmethyl}-benzoic acid] | 2.38
O=C(O)c1cccc(CN2C(=O)/C(=C(\c3ccccc3)c3ccc(C(F)(F)F)cc3)c3ccccc32)c1 [Example 48, 3-{2-Oxo-3-[1-phenyl-1-(4-trifluoromethyl-phenyl)-meth-(E)-ylidene]-2,3-dihydro-indol-1-ylmethyl}-benzoic acid] | 3.15
O=C(O)c1cccc(CN2C(=O)/C(=C(\c3ccccc3)c3ccc(F)c(Cl)c3)c3ccccc32)c1 [Example 50, 3-{3-[1-(3-Chloro-4-fluoro-phenyl)-1-phenyl-meth-(E)-ylidene]-2-oxo-2,3-dihydro-indol-1-ylmethyl}-benzoic acid] | 5.89
O=C(O)c1cccc(CN2C(=O)/C(=C(\c3ccccc3)c3cccc(Cl)c3)c3ccccc32)c1 [Example 52, 3-{3-[1-(3-Chloro-phenyl)-1-phenyl-meth-(E)-ylidene]-2-oxo-2,3-dihydro-indol-1-ylmethyl}-benzoic acid] | 6.55
O=C(O)c1cccc(CN2C(=O)/C(=C(\c3ccccc3)c3ccc(Cl)cc3)c3cc(F)ccc32)c1 [Example 53, 3-{3-[1-(4-Chloro-phenyl)-1-phenyl-meth-(E)-ylidene]-5-fluoro-2-oxo-2,3-dihydro-indol-1-ylmethyl}-benzoic acid] | 5.89
O=C(O)c1cccc(CN2C(=O)/C(=C(\c3ccccc3)c3cc(Cl)cc(Cl)c3)c3ccccc32)c1 [Example 54, 3-{3-[1-(3,5-Dichloro-phenyl)-1-phenyl-meth-(E)-ylidene]-2-oxo-2,3-dihydro-indol-1-ylmethyl}-benzoic acid] | 5.14
O=C(O)c1cccc(CN2C(=O)/C(=C(\c3ccccc3)c3cccc(Cl)c3Cl)c3ccccc32)c1 [Example 55, 3-{3-[1-(2,3-Dichloro-phenyl)-1-phenyl-meth-(E)-ylidene]-2-oxo-2,3-dihydro-indol-1-ylmethyl}-benzoic acid] | 2.94
O=C(O)c1ccccc1CN1C(=O)/C(=C(\c2ccccc2)c2ccc(Cl)cc2)c2ccccc21 [Example 56, 2-{3-[1-(4-Chloro-phenyl)-1-phenyl-meth-(E)-ylidene]-2-oxo-2,3-dihydro-indol-1-ylmethyl}-benzoic acid] | 4.24

Other lines, results leading:

EC50 [µM] | SMILES
2.36 | COC(=O)c1cccc(CN2C(=O)/C(=C(\c3ccccc3)c3ccc(Cl)cc3)c3cc(F)cc(Cl)c32)c1 [Example 29, 3-{7-Chloro-3-[1-(4-chloro-phenyl)-1-phenyl-meth-(E)-ylidene]-5-fluoro-2-oxo-2,3-dihydro-indol-1-ylmethyl}-benzoic acid methyl ester]
1.65 | COC(=O)c1cccc(CN2C(=O)/C(=C(\c3ccccc3)c3cccc(C(F)(F)F)c3)c3ccccc32)c1 [Example 30, 3-{2-Oxo-3-[1-phenyl-1-(3-trifluoromethyl-phenyl)-meth-(E)-ylidene]-2,3-dihydro-indol-1-ylmethyl}-benzoic acid methyl ester]
0.77 | COC(=O)c1cccc(CN2C(=O)/C(=C(\c3ccccc3)c3ccc(S(N)(=O)=O)cc3)c3ccccc32)c1 [Example 31, 3-{2-Oxo-3-[1-phenyl-1-(4-sulfamoyl-phenyl)-meth-(E)-ylidene]-2,3-dihydro-indol-1-ylmethyl}-benzoic acid methyl ester]
1.8 | COC(=O)c1cccc(CN2C(=O)/C(=C(/c3ccccc3)c3ccc(Cl)cc3)c3ccccc32)c1 [Example 34, 3-{3-[1-(4-Chloro-phenyl)-1-phenyl-meth-(Z)-ylidene]-2-oxo-2,3-dihydro-indol-1-ylmethyl}-benzoic acid methyl ester]
1.57 | CCOC(=O)c1csc(CN2C(=O)/C(=C(\c3ccccc3)c3ccc(Cl)cc3)c3ccccc32)n1 [Example 39, 2-{3-[1-(4-Chloro-phenyl)-1-phenyl-meth-(E)-ylidene]-2-oxo-2,3-dihydro-indol-1-ylmethyl}-thiazole-4-carboxylic acid ethyl ester]
1.21 | O=C(O)c1cccc(CN2C(=O)/C(=C(\c3ccccc3)c3ccc(Cl)cc3)c3ccccc32)c1 [Example 44, 3-{3-[1-(4-Chloro-phenyl)-1-phenyl-meth-(E)-ylidene]-2-oxo-2,3-dihydro-indol-1-ylmethyl}-benzoic acid]
1.89 | O=C(O)c1cccc(CN2C(=O)/C(=C(\c3ccccc3)c3ccc(F)cc3)c3ccccc32)c1 [Example 45, 3-{3-[1-(4-Fluoro-phenyl)-1-phenyl-meth-(E)-ylidene]-2-oxo-2,3-dihydro-indol-1-ylmethyl}-benzoic acid]
1.75 | O=C(O)c1cccc(CN2C(=O)/C(=C(\c3ccccc3)c3ccccc3OC(F)(F)F)c3ccccc32)c1 [Example 49, 3-{2-Oxo-3-[1-phenyl-1-(2-trifluoromethoxy-phenyl)-meth-(E)-ylidene]-2,3-dihydro-indol-1-ylmethyl}-benzoic acid]
1.42 | COc1cc(/C(=C2/C(=O)N(Cc3cccc(C(=O)O)c3)c3ccccc32)c2ccccc2)cc(OC)c1OC [Example 51, 3-{2-Oxo-3-[1-phenyl-1-(3,4,5-trimethoxy-phenyl)-meth-(E)-ylidene]-2,3-dihydro-indol-1-ylmethyl}-benzoic acid]
